“And” between values parts separate entries of the source, which are not always exact repeats. Identical values can stand only once.
Legend:
[1] = system: G544V-mutant LDL receptor; test: Cell-based trafficking assay: restoration of glycosylation/trafficking of mutant LDL receptor in CHO cells; parameters: species or system human; settings: for EC50: CHO cells expressing G544V-mutant LDL receptor, 2 hours at 37° C., value ± standard error, read-out: EC50, acquisition of mutant LDL receptor glycosylation
Procedure: (§1) T-Rex-CHO-K1 cloned cell lines expressing wild-type and mutant LDL receptor were cultured as described in Sorensen et al. (2006) and Tveten et al. (2007), and according to the manufacturer's protocols (Thermo Fisher Scientific). The expression in CHO cells of G544V-mutant or wildtype LDL receptor protein was induced with 1 μg/mL tetracycline for 24 h prior to experiments with 4-PBA or 4-PBA analogs (Tveten et al. (2007)). To compare pharmacological potency of 4-PBA analogs, cells were incubated with the compounds for 2 hours at 37° C. in 12-well 22 mm plates (Corning Costar #3513). For experiments concerning the extracellular secretion of GRP94 (FIG. 5), the incubations with 4-PBA were extended to 24 hours. Cells were broken in lysis buffer (1% (v/v) Triton X-100, 150 mM NaCl, 10 mM EDTA, 50 mM Tris-HCl pH 7.5) and cleared by centrifugation (15,000 g for 15 minutes). Cellular protein concentration was measured using “Protein Assay Kit II” (Bio-Rad) with bovine serum albumin as standard. Lysates were added to Laemmli sample buffer (New England BioLabs) containing 130 mM dithiothreitol and heated for 15 min at 55° C. Cell medium (containing secreted proteins) was added to Laemmli sample buffer containing 5% β-mercaptoethanol and boiled for 5 min. Samples were run on 4-15% Tris/HCl Criterion gels (Bio-Rad) followed by immunoblotting.
Chemiluminescence signals from western blots for the glycosylated (160 kDa) form of G544V mutant LDL receptor were quantified as a percentage of total LDL receptor protein (glycosylated+unglycosylated bands). Data at high concentrations of 4-PBA analogs, which show inhibition of LDL receptor trafficking, were omitted. Data from individual experiments were normalized (to obtain maximal response=100%), so that data from replicate experiments (n=4-5) could be averaged. Logistic fitting to the dose-response data was carried out with program Ultrafit (Elsevier Biosoft). […] Data from fluorescence polarization titrations (FIGS. 6(E)-6(G)) were analyzed with Ultrafit, and IC50 values were determined from plots using nonlinear curve fitting. […] IC50 values were converted to true affinities, Ki, using the approach of (Nikolovska-Coleska et al., 2004), and these are used in the scatter plot, FIG. 6(H).
A system comprising a CHO (T-Rex-CHO-K1) cell clone expressing the G544V-mutant human LDL receptor under a tetracycline-inducible promoter was used (see General Methods) to measure the packaging of resident proteins and a misfolded mutant LDL receptor into COPII vesicles budded from permeabilized cells. The G544V-mutant human LDL receptor is a naturally occurring transport-defective (class 2) mutant LDL receptor with a point mutation in the luminal β-propeller domain that causes ER trapping with chaperone association. 4-PBA has been show to restore transportation of G544V-mutant human LDL receptor to the plasma membrane (Tveten et al. (2007)).
CHO cells expressing G544V-mutant LDL receptor were incubated with the indicated concentrations of 4-PBA analogs for 2 hours at 37° C. Cell lysates were analyzed by immunoblotting for the appearance of 160 kDa mature glycosylated LDL receptor (labeling indicates the position of 160 kDa mature glycosylated and 120 kDa precursor forms of LDL receptor). Gamma correction was applied to the immunoblot images.

human Sec24a = biological target: T1, human Sec24a (Homo sapiens, UniProt O95486); test: Fluorescence polarization assay: displacement of 5-Fam-[…] from Sec24a; format: binding; settings: fluorescence polarization at 22° C.; value ± standard error; read-out: IC50, displacement of fluorescent probe 5-Fam-QIYTDIEANR from Sec24a
T1 construct: His6 (TEV-cleavable) (N, cleaved yes); made in house; host or cells: High Five insect cells (baculovirus)
T1 sequence (O95486 341-1093): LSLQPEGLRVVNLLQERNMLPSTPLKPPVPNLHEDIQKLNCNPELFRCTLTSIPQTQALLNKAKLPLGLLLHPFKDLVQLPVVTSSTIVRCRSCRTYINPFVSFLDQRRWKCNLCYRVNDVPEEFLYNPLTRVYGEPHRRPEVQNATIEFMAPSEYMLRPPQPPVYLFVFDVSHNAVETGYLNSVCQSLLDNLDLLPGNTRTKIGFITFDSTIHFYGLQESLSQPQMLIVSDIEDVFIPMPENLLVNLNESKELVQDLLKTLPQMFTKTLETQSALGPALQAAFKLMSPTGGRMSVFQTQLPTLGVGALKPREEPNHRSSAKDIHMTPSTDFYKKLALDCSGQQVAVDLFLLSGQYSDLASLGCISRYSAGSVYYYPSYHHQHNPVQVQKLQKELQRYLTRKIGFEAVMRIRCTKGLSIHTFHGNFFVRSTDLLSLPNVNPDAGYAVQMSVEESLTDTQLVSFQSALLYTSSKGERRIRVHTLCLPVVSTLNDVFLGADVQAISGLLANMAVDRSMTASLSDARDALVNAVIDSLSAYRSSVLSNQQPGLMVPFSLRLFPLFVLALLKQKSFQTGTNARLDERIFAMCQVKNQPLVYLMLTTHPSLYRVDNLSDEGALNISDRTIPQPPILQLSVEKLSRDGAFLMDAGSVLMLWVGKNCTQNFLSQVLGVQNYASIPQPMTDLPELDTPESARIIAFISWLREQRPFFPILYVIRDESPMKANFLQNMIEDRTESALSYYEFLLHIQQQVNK

[2] = biological target: T2, COPII coat proteins (Sec23a/24d) (Homo sapiens, UniProt O94855); test: In vitro COPII budding assay with permeabilized CHO cells; format: biochemical, H. sapiens; settings: 10 mM 4-PBA
T2 construct: Sec23a/Sec24d (full-length protein) for COPII budding assays; made in house; host or cells: High Five insect cells (Sec23a/24d, Sec13a/31a); E. coli BL21(DE3) (Sar1a); added to digitonin-permeabilized T-Rex-CHO-K1 cells
T2 sequence (O94855 whole entry): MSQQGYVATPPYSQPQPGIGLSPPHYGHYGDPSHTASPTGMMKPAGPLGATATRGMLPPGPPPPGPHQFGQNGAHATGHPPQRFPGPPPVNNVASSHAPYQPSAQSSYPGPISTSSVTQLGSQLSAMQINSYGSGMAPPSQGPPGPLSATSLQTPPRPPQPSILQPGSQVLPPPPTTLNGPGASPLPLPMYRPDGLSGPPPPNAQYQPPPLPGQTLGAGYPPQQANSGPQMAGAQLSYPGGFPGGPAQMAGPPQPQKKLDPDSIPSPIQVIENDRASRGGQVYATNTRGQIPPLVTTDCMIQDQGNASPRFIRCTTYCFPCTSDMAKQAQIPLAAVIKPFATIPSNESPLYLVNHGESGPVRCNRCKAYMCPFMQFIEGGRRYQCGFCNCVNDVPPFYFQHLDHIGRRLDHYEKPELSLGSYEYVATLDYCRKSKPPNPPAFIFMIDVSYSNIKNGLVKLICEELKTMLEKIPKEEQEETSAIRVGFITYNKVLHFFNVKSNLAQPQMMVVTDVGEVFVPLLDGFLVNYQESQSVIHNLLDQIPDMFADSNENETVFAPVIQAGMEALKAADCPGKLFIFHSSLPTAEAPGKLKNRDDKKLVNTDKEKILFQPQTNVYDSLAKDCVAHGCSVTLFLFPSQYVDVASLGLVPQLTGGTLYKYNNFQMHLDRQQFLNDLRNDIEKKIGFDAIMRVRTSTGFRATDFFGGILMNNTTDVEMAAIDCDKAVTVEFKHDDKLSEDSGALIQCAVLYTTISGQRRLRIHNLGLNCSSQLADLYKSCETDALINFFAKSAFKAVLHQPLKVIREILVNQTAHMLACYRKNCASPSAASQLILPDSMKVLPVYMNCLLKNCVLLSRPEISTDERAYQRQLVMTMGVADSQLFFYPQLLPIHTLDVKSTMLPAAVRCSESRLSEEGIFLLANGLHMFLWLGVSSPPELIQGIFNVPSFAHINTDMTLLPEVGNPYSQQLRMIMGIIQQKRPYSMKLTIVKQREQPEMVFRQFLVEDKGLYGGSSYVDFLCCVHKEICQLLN
T2 sequence (Q15436 whole entry partner): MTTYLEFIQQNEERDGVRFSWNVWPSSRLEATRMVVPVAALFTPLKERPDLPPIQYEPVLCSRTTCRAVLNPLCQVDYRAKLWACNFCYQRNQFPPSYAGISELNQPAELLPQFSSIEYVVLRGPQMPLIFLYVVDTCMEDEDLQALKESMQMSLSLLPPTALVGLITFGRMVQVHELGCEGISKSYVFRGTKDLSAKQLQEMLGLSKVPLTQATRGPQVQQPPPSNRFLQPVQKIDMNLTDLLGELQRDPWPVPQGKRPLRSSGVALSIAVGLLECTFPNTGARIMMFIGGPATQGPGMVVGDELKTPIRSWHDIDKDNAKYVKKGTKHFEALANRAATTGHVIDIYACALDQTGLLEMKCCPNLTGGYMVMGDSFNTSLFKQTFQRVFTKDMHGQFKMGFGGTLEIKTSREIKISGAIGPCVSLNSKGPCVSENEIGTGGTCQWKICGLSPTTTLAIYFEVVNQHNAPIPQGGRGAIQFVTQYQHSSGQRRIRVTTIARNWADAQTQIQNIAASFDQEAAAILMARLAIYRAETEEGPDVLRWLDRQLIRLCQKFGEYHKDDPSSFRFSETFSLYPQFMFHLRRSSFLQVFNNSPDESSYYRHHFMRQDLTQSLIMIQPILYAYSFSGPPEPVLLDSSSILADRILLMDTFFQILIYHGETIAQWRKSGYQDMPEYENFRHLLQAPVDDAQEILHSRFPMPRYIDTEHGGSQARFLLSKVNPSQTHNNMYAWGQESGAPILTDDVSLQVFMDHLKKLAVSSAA
Procedure: In vitro COPII budding reactions used permeabilized cells prepared from the T-Rex-CHO-K1 parent line and from the clone that expresses mutant LDL receptor. Permeabilization was carried out as described in Mancias and Goldberg (2008) with modifications. Two culture dishes (150 mm) of cells were prepared with cells at no greater than 60% confluence. Cells were washed with 20 ml PBS at 37° C. and then trypsinized with 2 ml of Trypsin-EDTA (0.05%, Gibco) for 1 min at 37° C.; 100 μl of Soybean Trypsin Inhibitor (2 mg/ml; Sigma) was added to each culture plate. Next, 5.5 ml ice-cold KHM buffer (110 mM KOAc, 20 mM Hepes pH 7.2, 2 mM magnesium acetate) was added per plate, and cells were transferred to a 15 ml Falcon tube and pelleted gently (250 g for 3 min at 4° C.). The supernatant was aspirated and the cells re-suspended in 6 ml ice-cold KHM buffer. To permeabilize the cells, 6 μl digitonin stock solution (40 mg/ml in dimethyl sulfoxide) was added, cells were mixed by inversion and incubated on ice for 5 minutes. To terminate permeabilization, cells were diluted to 14 ml with KHM buffer and immediately pelleted at 250 g for 3 min at 4° C. […] The protein concentration was measured using protein assay kit (Bio-Rad) with BSA as standard; routinely, the measurement is in the range 4-5 mg/ml. […]

GRP94 = format: cell-based
Procedure: as §1
[…] The presence of KDEL tagged (SEQ ID NO: 3) luminal chaperone GRP94 inside and outside cells was measured.

Sec23a/Sec24a⋅Sec22b = biological target: T3, Sec23a/Sec24a⋅Sec22b (Homo sapiens, UniProt O95486); test: Crystal soaking and X-ray difference Fourier maps; format: binding; settings: crystals soaked at 1, 15 and 50 mM 4-PBA
T3 construct: His6 (TEV-cleavable) (N, cleaved yes); made in house; host or cells: High Five insect cells (Sec23a/Sec24a); E. coli (Sec22b)
T3 sequence (Q15436 whole entry partner, one chain of several): as the sequence (Q15436 whole entry partner) above
T3 sequence (O75396 1-195 partner limits assumed, one chain of several): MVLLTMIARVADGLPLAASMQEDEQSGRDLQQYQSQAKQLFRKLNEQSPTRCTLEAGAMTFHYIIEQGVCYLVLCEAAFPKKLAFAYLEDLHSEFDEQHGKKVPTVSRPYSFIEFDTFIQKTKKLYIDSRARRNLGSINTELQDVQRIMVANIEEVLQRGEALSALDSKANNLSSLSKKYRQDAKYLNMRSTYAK
Procedure: The Sec23a/Sec24a⋅Sec22b complex was crystallized as described in Mancias and Goldberg (2007) from a solution comprising 10% (w/v) PEG 4000, 500 mM Na acetate and 50 mM Tris-HCl pH 7.9. Crystals were transferred into a soaking buffer of 10% (w/v) PEG 4000, 600 mM NaCl, 50 mM Tris-HCl buffer, pH 7.9. Either 4-PBA (0-50 mM) or 5 mM ΦC signal peptide was added to the crystal containing solution, and the ligand soaking proceeded for five hours at 22° C. Crystals were then transferred to an equivalent ligand-containing buffer with additional 24% ethylene glycol cryo-protectant, and were flash frozen in liquid nitrogen. Crystals treated in this manner diffracted synchrotron X-rays to 2.5-2.8 Å resolution.
X-ray diffraction data were collected at 0.979 Å wavelength on beamline ID-24C or ID-24E of the Advanced Photon Source, Argonne National Laboratory. Data were processed with the program HKL2000 (Otwinowski and Minor (1997); see Tables 1 and 2). Structure refinement was carried out using Phenix (Adams et al. (2010)), initially by rigid-body improvement, followed by positional refinement, based on the published coordinates of Sec23a/Sec24a⋅Sec22b (PDB 2NUT; Mancias and Goldberg (2007)). Models for […] signal peptides or 4-PBA were not included in refinements prior to the creation of FIG. 1, to eliminate potential phase bias. […]

Structure (SMILES)	EC50 [1]	IC50 (human Sec24a)	also measured
O=C(O)CCc1ccccc1 [3-PPA, 3-phenylpropionate]	7.48 ± 0.68 mM	4.11 ± 0.34 mM	
O=C(O)CCCc1ccccc1 [4-PBA, 4-phenylbutyrate]	6.37 mM and 6.4 mM	3.66 ± 0.22 mM	restored trafficking of mutant LDL receptor (share of the receptor) ([1]; 10 mM 4-PBA applied to cells): ≤ 25%; packaging of ER residents and mutant LDL receptor into COPII vesicles [2]: significant enrichment; reduction in the packaging rate of p24 proteins and ERGIC-53 [2]: 50%; secretion of GRP94 from CHO cells (GRP94; 0-40 mM 4-PBA, 24 hours): dose-dependent; cell lysis (GRP94; 45 mM 4-PBA, highest concentration): cell lysis was detected; 4-PBA concentration of maximal GRP94 secretion (GRP94; 24 hours at 37° C., ER stressed and ER unstressed CHO cells): 20 mM; 4-PBA concentration at which unfolded protein response (UPR) was attenuated (GRP94; CHO cells expressing G544V-mutant LDL receptor, 24 hours at 37° C.): 10 to 20 mM; binding to the B site of Sec24a (Sec23a/Sec24a⋅Sec22b): clear evidence for binding
O=C(O)CCCCc1ccccc1 [5-PVA, 5-phenylvalerate]	3.36 ± 0.42 mM	0.99 ± 0.08 mM	
O=C(O)CCCc1ccc(O)cc1 [Hydroxy-PBA, 4-(4-hydroxyphenyl)butyrate]	10.6 ± 0.4 mM	5.04 ± 0.69 mM	
O=C(O)CCc1ccc(O)cc1 [Hydroxy-PPA, 3-(4-hydroxyphenyl)propionate]	21.7 ± 1.03 mM	9.22 ± 0.94 mM	
COc1ccc(CCCC(=O)O)cc1 [Methoxy-PBA, 4-(4-methoxyphenyl)butyrate]	8.63 ± 0.98 mM	4.14 ± 0.7 mM	
Cc1ccc(CCCC(=O)O)cc1 [Tolyl-BA, 4-(4-tolyl)butyrate]	4.89 ± 0.24 mM	1.7 ± 0.16 mM	

From patent US11433040B2, “Methods for modifying endoplasmic reticulum processing of protein” (priority 2017, dated 2022)
